Entries after “also recorded” stand apart in the source; their conditions may differ.
System: Mfn2 null MEFs
Test: Mitochondrial elongation (aspect ratio) fusogenicity assay
Format: cell-based, mouse
Design: % long compare to B: dose or concentration left out as unconfirmed
Conditions: for % long compare to B: mitochondrial elongation relative to Cpd B (B01 = 100), compound overnight as printed (FIG. 48); for % long compare to B / Aspect ratio (MEAN ± SEM): Mfn2 null MEFs; for Aspect ratio (MEAN ± SEM): overnight, treatment with 1 μM compound (footnote); for Fusogenicity Rank: rank order of aspect ratio among 44 soluble library compounds

## O=C(NCCSCc1cccc(Cl)c1)C1CCCCn2nnnc21 (centres unmarked) [D07, N-(2-{[(3-chlorophenyl)methyl]-sulfanyl}ethyl)-5H,6H,7H,8H,9H-[1,2,3,4]tetrazolo[1,5-a]azepine-9-carboxamide]
  % long compare to B: −6%

## COc1ccc(OCc2nnc(SC(C)C(=O)Nc3sc4c(c3C(N)=O)CCC4)n2C)cc1 (centres unmarked) [D8, 2-[2-({5-[(4-methoxyphenoxy)-methyl]-4-methyl-4H-1,2,4-triazol-3-yl}sulfanyl)propana-mido]-4H,5H,6H-cyclopenta[b)thiophene-3-carboxamide]
  % long compare to B: −1%

## Cc1cc(C)n2nc(C(=O)N3C[C@@H]4CCN(Cc5nccn5C)[C@@H]4C3)cc2n1 [D08, 2-{[(3aS,6aS)-5-{5,7-dimethylpyrazolo[1,5-a]pyrimidine-2-carbonyl}-octahydropyrrolo[3,4-b]pyrrol-1-yl]methyl}-1-methyl-1H-imidazole]
  % long compare to B: 114%

## O=C1CC(SCCc2nc3ccccc3[nH]2)C(=O)N1c1cccc(F)c1 (centres unmarked) [D09, 3-{[2-(1H-1,3-benzodiazol-2-yl)ethyl]sulfanyl}-1-(3-fluorophenyl)pyrro-lidine-2,5-dione]
  % long compare to B: 73%

## O=C1CC(SCCc2nc3ccccc3[nH]2)C(=O)N1c1cccc(F)c1 (centres unmarked) [D9, 3-{[2-(1H-1,3-benzodiazol-2-yl)ethyl]sulfanyl}-1-(3-fluorophenyl)pyrro-lidine-2,5-dione]
Mitochondrial elongation / fusion
  Fusogenic activity: failed validation in the secondary screen; also recorded: showed no true fusogenic activity

## Cc1ccc(SC2CCN(Cc3cc4n(n3)CCNC4)CC2)cc1 [D10, 4-[(4-methylphenyl)sulfanyl]-1-({4H,5H,6H,7H-pyrazolo[1,5-a]pyrazin-2-yl}methyl)piperidine]
  % long compare to B: −7%

## Cc1nc[nH]c1CSCCNC(=O)C1CCN(C(=O)C2CCC2)CC1 [D11, 1-cyclobutanecarbonyl-N-(2-{[(4-methyl-1H-imidazol-5-yl)methyl]sulfanyl}-ethyl)piperidine-4-carboxamide]
  % long compare to B: −8%

## Cc1ccc(N2C[C@@H]3CC[C@H](C2)N(Cc2ccccn2)C3=O)nn1 [D12, (1S,5R)-3-(6-methylpyridazin-3-yl)-6-[(pyridin-2-yl)methyl)-3,6-diazabicyclo[3.2.2] nonan-7-one]
  % long compare to B: −4%

## CC(C)C1=CC2C(=O)NC(CSCC(=O)NCc3ccccn3)=NC2S1 (centres unmarked) [E02, 2-({[4-oxo-6-(propan-2-yl)-3H,4H,4aH,7aH-thieno[2,3-d]pyrimidin-2-yl]methyl}sulfanyl)-N-[(pyridin-2-yl)methyl]acetamide]
  % long compare to B: 11%

## Cc1nc[nH]c1CSCCn1cnc2cn(C)nc2c1=O [E03, 2-methyl-6-(2-{[(4-methyl-1H-imidazol-5-yl)methyl]sulfanyl}-ethyl)-2H,6H,7H-pyrazolo[4,3-d]pyrimidin-7-one]
  % long compare to B: −10%

## CCC(C)NC(=O)c1ccccc1NC(=O)C(C)Sc1ccc(C)cc1 (centres unmarked) [E04, N-(butan-2-yl)-2-{2-[(4-methyl-phenyl)sulfanyl]pro-panamido}benzamide]
  % long compare to B: 1%

## O=C(NCCSCc1ccccc1)C1CCCCO1 (centres unmarked) [E05, N-[2-(benzyl-sulfanyl)ethyl]oxane-2-carboxamide]
  % long compare to B: 1%

## Cc1nnc(SCCCNC(=O)c2n[nH]c3c2CN(C)CC3)s1 [E06, 5-methyl-N-{3-[(5-methyl-1,3,4-thiadiazol-2-yl)sulfanyl]propyl}-1H,4H,5H,6H,7H-pyrazolo[4,3-c]pyridine-3-carboxamide]
  % long compare to B: −3%

## c1ccc(CSCCc2nc(C3CCOC3)no2)cc1 (centres unmarked) [E07, 5-[2-(benzylsulfanyl)ethyl]-3-(oxolan-3-yl)-1,2,4-oxadiazole]
  % long compare to B: 4%

## CC(c1cccc([N+](=O)[O-])c1)N(C)CC(=O)NCCSCc1ccccc1C#N (centres unmarked) [N-(2-{[(2-cyanophenyl)methyl]sulfanyl}ethyl)-2-{methyl[1-(3-nitrophenyl)ethyl]amino}acetamide]
  Aspect ratio (MEAN ± SEM): 4.0 ± 0.5
  Fusogenicity Rank: 16

## Cc1cccc(NC(=O)CSCC(=O)N(Cc2ccc(N(C)C)cc2)C(C)C)c1 [N-{[4-(dimethylamino)phenyl]methyl}-2-({[(3-methylphenyl)carbamoyl]methyl}sulfanyl)-N-(propan-2-yl)acetamide]
  Aspect ratio (MEAN ± SEM): 4.6 ± 0.2
  Fusogenicity Rank: 12

## Cc1cc(C)n2nc(C(=O)N3C[C@@H]4CCN(Cc5nccn5C)[C@@H]4C3)cc2n1 [drawing 198, 2-{[(3aS,6aS)-5-{5,7-dimethylpyrazolo[1,5-a]pyrimidine-2-carbonyl}-octahydropyrrolo[3,4-b]pyrrol-1-yl]methyl}-1-methyl-1H-imidazole]
  Aspect ratio (MEAN ± SEM): 9.0 ± 3.1
  Fusogenicity Rank: 1

## O=C1CC(SCCc2nc3ccccc3[nH]2)C(=O)N1c1cccc(F)c1 (centres unmarked) [drawing 199, 3-{[2-(1H-1,3-benzodiazol-2-yl)ethyl]sulfanyl}-1-(3-fluorophenyl)pyrrolidine-2,5-dione]
  Aspect ratio (MEAN ± SEM): 6.9 ± 0.8
  Fusogenicity Rank: 3

## Cc1ccc(C(C)C)c(OCCCSCc2nc3ccccc3[nH]2)c1 [drawing 200, 2-[({3-[5-methyl-2-(propan-2-yl)phenoxy]propyl}sulfanyl)methyl]-1H-1,3-benzodiazole]
  Aspect ratio (MEAN ± SEM): 3.0 ± 0.4
  Fusogenicity Rank: 37

## COc1ccc(SC(C)C(=O)Nc2cc[nH]n2)cc1 (centres unmarked) [drawing 201, 2-[(4-methoxyphenyl)sulfanyl]-N-(1H-pyrazol-3-yl)propanamide]
  Aspect ratio (MEAN ± SEM): 3.8 ± 0.4
  Fusogenicity Rank: 22

## O=C(CSCc1ccc(F)cc1)N1CCc2c([nH]c3ccccc23)C1c1ccc(Cl)cc1 (centres unmarked) [drawing 202, 1-[1-(4-chlorophenyl)-1H,2H,3H,4H,9H-pyrido[3,4-b]indol-2-yl]-2-{[(4-fluorophenyl)methyl]sulfanyl}ethan-1-one]
  Aspect ratio (MEAN ± SEM): 4.7 ± 0.9
  Fusogenicity Rank: 11

## CCOC(=O)c1sc(NC(=O)C(CC)Sc2nnc3c(n2)[nH]c2ccccc23)nc1C (centres unmarked) [drawing 203, ethyl 4-methyl-2-(2-{5H-[1,2,4]triazino[5,6-b]indol-3-ylsulfanyl}butanamido)-1,3-thiazole-5-carboxylate]
  Aspect ratio (MEAN ± SEM): 4.5 ± 0.5
  Fusogenicity Rank: 13

## CC(C)C1=CC2C(=O)NC(CSCC(=O)NCc3ccccn3)=NC2S1 (centres unmarked) [drawing 204, 2-({[4-oxo-6-(propan-2-yl)-3H,4H,4aH,7aH-thieno[2,3-d]pyrimidin-2-yl]methyl}sulfanyl)-N-[(pyridin-2-yl)methyl]acetamide]
  Aspect ratio (MEAN ± SEM): 3.8 ± 0.6
  Fusogenicity Rank: 21

## O=C(CSCCc1ccccn1)Nc1ccc(Cl)c(Cl)c1 [drawing 205, N-(3,4-dichlorophenyl)-2-{[2-(pyridin-2-yl)ethyl]sulfanyl}acetamide]
  Aspect ratio (MEAN ± SEM): 2.8 ± 0.1
  Fusogenicity Rank: 41

## Cc1nc[nH]c1CSCCn1cnc2cn(C)nc2c1=O [drawing 206, 2-methyl-6-(2-{[(4-methyl-1H-imidazol-5-yl)methyl]sulfanyl}ethyl)-2H,6H,7H-pyrazolo[4,3-d]pyrimidin-7-one]
  Aspect ratio (MEAN ± SEM): 2.8 ± 0.2
  Fusogenicity Rank: 42

## Cc1ccc(-c2noc(CSCCCC(=O)Nc3c(C)cccc3C)n2)cc1F [drawing 209, N-(2,6-dimethylphenyl)-4-({[3-(3-fluoro-4-methylphenyl)-1,2,4-oxadiazol-5-yl]methyl}sulfanyl)butanamide]
  Aspect ratio (MEAN ± SEM): 3.9 ± 0.5
  Fusogenicity Rank: 20

## COc1ccc2c(c1)C1(SCCN1C(=O)c1ccccc1C)C(=O)N2Cc1cccc(C(F)(F)F)c1 (centres unmarked) [drawing 210, 5-methoxy-3′-(2-methylbenzoyl)-1-{[3-(trifluoromethyl)phenyl]methyl}-1,2-dihydrospiro[indole-3,2′-[1,3]thiazolidine]-2-one]
  Aspect ratio (MEAN ± SEM): 3.5 ± 0.6
  Fusogenicity Rank: 26

## Cc1cccc(C)c1NC(=O)CCCSCc1ncc(C(C)C)o1 [drawing 211, N-(2,6-dimethylphenyl)-4-({[5-(propan-2-yl)-1,3-oxazol-2-yl]methyl}sulfanyl)butanamide]
  Aspect ratio (MEAN ± SEM): 3.5 ± 0.1
  Fusogenicity Rank: 25

## Cc1ccc2c(c1)SC(C(=O)NCc1ccc(N3CCCN(C)CC3)nc1)C2 (centres unmarked) [drawing 212, 6-methyl-N-{[6-(4-methyl-1,4-diazepan-1-yl)pyridin-3-yl]methyl}-2,3-dihydro-1-benzothiophene-2-carboxamide]
  Aspect ratio (MEAN ± SEM): 4.0 ± 0.3
  Fusogenicity Rank: 18

## O=C(NCCSCc1ccc(Br)s1)C1CCCN(C(=O)c2cccs2)C1 (centres unmarked) [drawing 213, N-(2-{[(5-bromothiophen-2-yl)methyl]sulfanyl}ethyl)-1-(thiophene-2-carbonyl)piperidine-3-carboxamide]
  Aspect ratio (MEAN ± SEM): 5.1 ± 0.2
  Fusogenicity Rank: 9

## Cc1ccc(-n2nnnc2SC(C)c2nc(-c3nnc[nH]3)no2)cc1 (centres unmarked) [drawing 215, 1-(4-methylphenyl)-5-({1-[3-(4H-1,2,4-triazol-3-yl)-1,2,4-oxadiazol-5-yl]ethyl}sulfanyl)-1H-1,2,3,4-tetrazole]
  Aspect ratio (MEAN ± SEM): 3.4 ± 0.3
  Fusogenicity Rank: 27

## Cc1nnc(SCCCNC(=O)c2n[nH]c3c2CN(C)CC3)s1 [drawing 216, 5-methyl-N-{3-[(5-methyl-1,3,4-thiadiazol-2-yl)sulfanyl]propyl}-1H,4H,5H,6H,7H-pyrazolo[4,3-c]pyridine-3-carboxamide]
  Aspect ratio (MEAN ± SEM): 3.1 ± 0.3
  Fusogenicity Rank: 34
